Results taken from patent publication US20250177398A1, “CARBONIC ANHYDRASE ENZYMES FOR REGULATING MAST CELL HEMATOPOIESIS AND TYPE 2 INFLAMMATION” (RUTGERS, THE STATE UNIVERSITY OF NEW JERSEY, priority 2015, published 2025).

Experiments:
[1] = tested on: IL-3C-induced intestinal mast cell responses and peripheral basophilia; test: IL-3C treatment of Rag1-deficient mice; assay type: in vivo, mouse; details: MZ 2 mg every day (FIG. 3G)
Method: Methods for maintenance, recovery, infection and isolation of Trichinella larvae were performed as previously described (Urban, et al., 2000. J Immunol 164:2046-2052). Mice were infected with 500 Trichinella muscle larvae by oral gavage and were treated with vehicle (1:5 DMSO to PBS) or 2-3 mg of MZ i.p. daily; mice were sacrificed between 10-11 days post-infection. At necropsy, single cell suspensions of mLNs and spleens were prepared as previously described (Giacomin, et al., 2012. Journal of immunology (Baltimore, Md.: 1950) 189:4371-4378) for basophil and mast cell analysis. Blood was collected and serum was isolated for analysis of Mcpt1 and IgE. Sections (1 cm) of small intestine (jejunum) were collected for real-time PCR and histological analysis. Remaining sections of small intestine were slit lengthwise, rinsed in PBS, and placed in HBSS for 4 hours at 37° C. and adult worms were quantified by microscopic analysis as previously described (Urban, et al., 2000. J Immunol 164:2046-2052). Rag1^−/− mice were injected (i.p.) with a combination of recombinant IL-3 (1 μg) and α-IL-3 antibody (0.5 μg) (BioLegend: clone MP2-8F8) in 200 μl PBS every 3 days for 7-10 days. IL-3C-treated mice were treated with MZ (2 mg) or vehicle (DMSO) every day.

[2] = tested on: human CD34+ progenitor cells (mast cell development); test: Human mast cell cultures from blood CD34+ progenitor cells; assay type: cell-based; details: human CD34+ cells with SCF, consistent across 5 donors
Excerpt: Blood from healthy human donors was obtained from the New York Blood Center under protocols approved by the Rutgers Institutional Review Boards (IRB). Peripheral blood cells were isolated using a Ficoll gradient. CD34^+ cells were purified using a CD34 MicroBead isolation kit according to the manufacturer's protocol (Miltenyi Biotec, 130-048-702). 25-50×10^3 CD34^+ cells were placed in methocult ([…]) supplemented with stem cell factor (SCF), IL-6 and IL-3 as described previously (Saito, et al., 2006. Nat Protoc 1:2178-2183). Mast cell populations were evaluated on day 14 post-culture.

[3] = tested on: atopic dermatitis (AD)-like disease; test: MC903-induced atopic dermatitis-like disease; assay type: in vivo, mouse; details: MC903-treated mice, 2-3 mg MZ i.p. daily
Method: Single cell suspensions were made from mesenteric, or skin draining lymph nodes. Lymph node cells were cultured in RPMI complete medium and treated with and without anti-CD3 (BD Pharmingen: clone 145-2C11) and anti-CD28 antibodies (BD Pharmingen: clone 37.51) for 72 hours. Standard sandwich ELISA (eBioscience) was performed to measure IL-4 (clones 11B11 and BVD6-24G2), IL-5 (clones TRFK5 and TRFK4) and IL-13 (clones eBio13A and eBio1316H) levels in the cell-free supernatants. Serum quantities of Mcpt1 and IgE were measured by commercial sandwich ELISA kits (BD Biosciences, eBioscience).
Mice were treated once a day topically with 2 nmol of MC903 (calcipotriol, Tocris Bioscience) in 20 μl of ethanol for 6 days as described previously (Kim, et al., 2013. Sci Transl Med 5: 170ra116). MC903-treated mice were treated with vehicle (1:5 DMSO to PBS) or 2-3 mg of MZ i.p. daily and sacrificed on day 7 post-treatment.

[4] = tested on: food allergy-induced mast cell responses; test: Food allergy-like disease (OVA sensitization and challenge); assay type: in vivo, mouse; details: OVA sensitized and challenged mice
Method: RNA from sections of small intestine was isolated by homogenization in TRIzol (Invitrogen) followed by phenol-chloroform extraction and isopropanol precipitation. cDNA was generated per standard protocol with Superscript reverse transcriptase (Invitrogen) and used as input for real-time PCR. Real-time data were analyzed using the ΔΔCT method using SYBR Green chemistry (Applied Biosystems) with β-actin serving as the endogenous housekeeping gene. All reactions were run on an ABI 7500 Fast Real-Time PCR System (Applied Biosystems). Samples were normalized to naïve controls. The following QuantiTech primer assays from Qiagen were used: Mcpt1 (QT00157864), IL-4 (QT00160678), IL-9 (QT00107555), Arg1 (QT00134288), […] (QT00254359), Car1 (QT01058113) and Car2 (QT00494592). Single cell suspensions were made from mesenteric, or skin draining lymph nodes. Lymph node cells were cultured in RPMI complete medium and treated with and without anti-CD3 (BD Pharmingen: clone 145-2C11) and anti-CD28 antibodies (BD Pharmingen: clone 37.51) for 72 hours. Standard sandwich ELISA (eBioscience) was performed to measure IL-4 (clones 11B11 and BVD6-24G2), IL-5 (clones TRFK5 and TRFK4) and IL-13 (clones eBio13A and eBio1316H) levels in the cell-free supernatants. Serum quantities of Mcpt1 and IgE were measured by commercial sandwich ELISA kits (BD Biosciences, eBioscience). […]

CC(=O)/N=c1/sc(S(N)(=O)=O)nn1C [MZ, methazolamide]
IL-3C-induced basophilia [1]: no effect
intestinal mast cell responses [1]: significantly reduced
percentages of mast cells ([2]; IL-6, IL-3, day 14 (FIGS. 4L-4M)): significantly reduced
total numbers of mast cells ([2]; IL-6, IL-3, day 14 (FIGS. 4L-4N)): significantly reduced
type 2 cytokine production (skin-draining LN IL-4, IL-5, IL-13) vs controls ([3]; day 7 (FIG. 3E)): equivalent or significantly increased
AD-like pathology vs controls ([3]; day 7 (FIG. 3F)): similar
mast cell responses (serum Mcpt1, intestinal mcpt1 expression, intestinal mast cells by histology) ([4]; 2-3 mg MZ i.p. daily (FIG. 4A-D)): significantly decreased
serum IgE levels ([4]; 2-3 mg MZ i.p. daily (FIG. 4E)): significantly increased
